Where two headings read alike, the source gives them in different places.
Tests used:
prolactin secretion = test: Anti-prolactin activity: egg-nidation inhibition in rats; type: in vivo, rat (Sprague Dawley); details: Rattus norvegicus, po, 120 h, read-out: Nidation inhibition in rats ED50
Source text: The prolactin secretion inhibitory action of the compounds has been indirectly evaluated by determining the egg-nidation inhibitory action in rats. For the ergoline derivatives this activity is considered to be correlated with the anti-prolactin activity (E. FLUCKIGER and E. DEL POZO,Handb. exp. Pharmac. 49, 615, 1978), since prolactin is the only hypophysial hormone involved in the maintenance of the first part of pregnancy in rats (W. K. MORISHIGE and I. ROTHCHILD, Endocrinology 95, 260, 1974).
Pregnant Sprague Dawley rats weighing 200-250 g were used. The compounds to be tested, dissolved in diluted mineral acids, were administered orally to groups from six to eight rats on day 5 of pregnancy. The animals were sacrificed on day 14 and the uteri were examined. The absence of implantation sites was taken as the criterion of anti-prolactin activity. Several doses were tested for the ED50 evaluation. As reference standard Bromocriptine was used.

Emetic activity in dogs = details: dog, in vivo, po, observed for 6 hours; read-out: Emetic activity in dogs ED50
Source text: The emetic activity of the compounds was investigated by oral administration to male beagle dogs weighing 15-20 kg. […] Four to six animals per dose were employed for the ED50 evaluation. […] The emetic activity of the compounds is similar or lower than that of Bromocriptine. The ratio between activity and tolerance of the new ergoline derivatives accordingly is very high.

[1] = test system: spontaneously hypertensive male rats, strain SHR; test: Anti-hypertensive activity: change in blood pressure (BP) in SHR rats; type: in vivo, rat
Method: (§1) Four spontaneously hypertensive male rats, strain SHR, weighing 250-300 g for each group were used. The animals were treated once a day for four consecutive days. Drugs were administered by gastric gavage, suspended in 5% gum arabic (0.2 ml/100 g body weight) and blood pressure (BP) and heart rate (HR) were measured by indirected tail/cuff method (BP Recorder W+W). Blood pressure and heart rate were measured on the first and fourth days of treatment 1 hour before and 1 and 5 hours after drug administration. Hydralazine and α-methyl-Dopa were used as reference drugs.

[2] = test system: spontaneously hypertensive male rats, strain SHR; test: Change in heart rate (HR) in SHR rats; type: in vivo, rat
Method: as §1

[3] = 0.5 mg/kg os, 1st day, 1 hour after dosing
[4] = 0.5 mg/kg os, 1st day, 5 hours after dosing
[5] = 0.5 mg/kg os, 4th day, 1 hour after dosing
[6] = 0.5 mg/kg os, 4th day, 5 hours after dosing
[7] = 1 mg/kg os, 1st day, 1 hour after dosing
[8] = 1 mg/kg os, 1st day, 5 hours after dosing
[9] = 1 mg/kg os, 4th day, 1 hour after dosing
[10] = 1 mg/kg os, 4th day, 5 hours after dosing
[11] = os, all tested doses of the compound
[12] = 2 mg/kg os, 1st day, 1 hour after dosing
[13] = 2 mg/kg os, 1st day, 5 hours after dosing
[14] = 2 mg/kg os, 4th day, 1 hour after dosing
[15] = 2 mg/kg os, 4th day, 5 hours after dosing
[16] = 10 mg/kg os, 1st day, 1 hour after dosing
[17] = 10 mg/kg os, 1st day, 5 hours after dosing
[18] = 10 mg/kg os, 4th day, 1 hour after dosing
[19] = 10 mg/kg os, 4th day, 5 hours after dosing
[20] = 0.1 mg/kg os, 1st day, 1 hour after dosing
[21] = 0.1 mg/kg os, 1st day, 5 hours after dosing
[22] = 0.1 mg/kg os, 4th day, 1 hour after dosing
[23] = 0.1 mg/kg os, 4th day, 5 hours after dosing
[24] = 12.5 mg/kg os, 1st day, 1 hour after dosing
[25] = 12.5 mg/kg os, 1st day, 5 hours after dosing
[26] = 12.5 mg/kg os, 4th day, 1 hour after dosing
[27] = 12.5 mg/kg os, 4th day, 5 hours after dosing
[28] = 5 mg/kg os, 1st day, 1 hour after dosing
[29] = 5 mg/kg os, 1st day, 5 hours after dosing
[30] = 5 mg/kg os, 4th day, 1 hour after dosing
[31] = 5 mg/kg os, 4th day, 5 hours after dosing

CC(C)C[C@H]1C(=O)N2CCC[C@H]2[C@]2(O)O[C@](NC(=O)[C@@H]3C=C4c5cccc6[nH]c(Br)c(c56)C[C@H]4N(C)C3)(C(C)C)C(=O)N12 [2-bromo-α-ergocryptine, reference compound]
ED50 (prolactin secretion): 5.7 mg/kg
TD50 at 6 h (Emetic activity in dogs): 0.01 to 0.02 mg/kg

CC(C)NC(=O)N(C(=O)[C@@H]1C[C@@H]2c3cccc4[nH]cc(c34)C[C@H]2N(C)C1)C(C)C [Example 1, 1,3-diisopropyl-3-(6'-methylergoline-8'β-carbonyl)urea]
Change in BP [1, 3]: -27 mmHg
Change in BP [1, 4]: -20 mmHg
Change in BP [1, 5]: -20 mmHg
Change in BP [1, 6]: 0 mmHg
Change in BP [1, 7]: -40 mmHg
Change in BP [1, 8]: -37 mmHg
Change in BP [1, 9]: -40 mmHg
Change in BP [1, 10]: -32 mmHg
Hypotensive activity vs Hydralazine ([1]; doses not stated): greater and longer lasting hypotensive activity than Hydralazine
Effect on BP (in words) [1, 11]: marked decrease of BP in a dose dependent manner
Change in HR [2, 3]: -20 beats/minute
Change in HR [2, 4]: -12 beats/minute
Change in HR [2, 5]: -20 beats/minute
Change in HR [2, 6]: -7 beats/minute
Change in HR [2, 7]: -30 beats/minute
Change in HR [2, 8]: -35 beats/minute
Change in HR [2, 9]: -35 beats/minute
Change in HR [2, 10]: -30 beats/minute

CCCN1C[C@H](C(=O)N(C(=O)NC(C)C)C(C)C)C[C@@H]2c3cccc4[nH]cc(c34)C[C@H]21 [Example 5, 1,3-diisopropyl-3-(6'-n-propylergoline-8'β-carbonyl)-urea]
ED50 (prolactin secretion; p.o., day 5 of pregnancy): 0.02 mg/kg
TD50 at 6 h (Emetic activity in dogs): 0.01 mg/kg

CO[C@]12C[C@@H](C(=O)N(C(=O)NC(C)(C)C)C(C)(C)C)CN(C)[C@@H]1Cc1c[nH]c3cccc2c13 [Example 12, 1,3-di-t-butyl-3-(10'αmethoxy-6'-methylergoline-8'β-carbonyl)-urea]
Change in BP [1, 12]: -17 mmHg
Change in BP [1, 13]: -17 mmHg
Change in BP [1, 14]: -10 mmHg
Change in BP [1, 15]: -24 mmHg
Tolerance on the 4th day ([1]; 10 mg/kg): tolerance does not occur
Change in BP [1, 16]: -26 mmHg
Change in BP [1, 17]: -37 mmHg
Change in BP [1, 18]: -71 mmHg
Change in BP [1, 19]: -28 mmHg
Hypotensive activity vs Hydralazine ([1]; compound 10 mg/kg vs Hydralazine 5 mg/kg, 1st day): comparable activity to that of Hydralazine
Hypotensive activity vs Hydralazine ([1]; compound 10 mg/kg vs Hydralazine 5 mg/kg, 4th day): greater activity on the 4th day
Effect on BP (in words) [1, 11]: reduced BP in a dose dependent manner
Change in HR [2, 12]: -10 beats/minute
Change in HR [2, 13]: -10 beats/minute
Change in HR [2, 14]: -20 beats/minute
Change in HR [2, 15]: -12 beats/minute
Change in HR [2, 16]: 0 beats/minute
Change in HR [2, 17]: -30 beats/minute
Change in HR [2, 18]: +17 beats/minute
Change in HR [2, 19]: -10 beats/minute

CCNC(=O)N(CCCN(C)C)C(=O)[C@@H]1C[C@@H]2c3cccc4[nH]cc(c34)C[C@H]2N(C)C1 [Example 13, 1-ethyl-3-(3'-dimethylaminopropyl)-3(6'-methylergoline-8'β-carbonyl)-urea]
ED50 (prolactin secretion): 0.3 mg/kg
TD50 at 6 h (Emetic activity in dogs): 0.01 mg/kg

CO[C@]12C[C@@H](C(=O)N(C(=O)NC(C)(C)C)C(C)(C)C)CN(C)[C@@H]1Cc1cn(C)c3cccc2c13 [Example 17]
Effect on BP (in words) ([1]; 0.1 mg/kg b.w.): No effect
Change in BP [1, 20]: -5 mmHg
Change in BP [1, 21]: -7 mmHg
Change in BP [1, 22]: -4 mmHg
Change in BP [1, 23]: -10 mmHg
Change in BP [1, 7]: -20 mmHg
Change in BP [1, 8]: -19 mmHg
Change in BP [1, 9]: -43 mmHg
Change in BP [1, 10]: -66 mmHg
Effect on BP (in words) ([1]; 10 mg/kg b.w., 1st and 4th day): dose related as well as very marked
Change in BP [1, 17]: -60 mmHg
Change in BP [1, 18]: -59 mmHg
Change in BP [1, 19]: -93 mmHg
Hypotensive activity vs Hydralazine ([1]; compound 1 mg/kg vs Hydralazine 5 mg/kg, 4th day): much more remarkable
Hypotensive activity vs Hydralazine ([1]; compound 1 mg/kg vs Hydralazine 5 mg/kg, first day): comparable to that of Hydralazine
Hypotensive effect vs Hydralazine ([1]; compound 10 mg/kg b.w., 1st and 4th days): hypotensive effect larger than Hydralazine
Change in HR [2, 20]: -2 beats/minute
Change in HR [2, 21]: +3 beats/minute
Change in HR [2, 22]: -4 beats/minute
Change in HR [2, 23]: -8 beats/minute
Change in HR [2, 7]: -20 beats/minute
Change in HR [2, 8]: -23 beats/minute
Change in HR [2, 9]: -27 beats/minute
Change in HR [2, 10]: -22 beats/minute
Change in HR [2, 16]: +15 beats/minute
Change in HR [2, 17]: -13 beats/minute
Change in HR [2, 18]: -2 beats/minute
Change in HR [2, 19]: +6 beats/minute

CN1C[C@H](C(=O)N(C(=O)NC(C)(C)C)C(C)(C)C)C[C@@H]2c3cccc4c3c(cn4C)C[C@H]21 [Example 18, 1,3-di-tert-butyl-3-(1',6'-dimethylergoline-8'β-carbonyl)urea]
Change in BP [1, 7]: -15 mmHg
Change in BP [1, 8]: -10 mmHg
Change in BP [1, 9]: -8 mmHg
Change in BP [1, 10]: -14 mmHg
Effect on BP (in words) ([1]; 12.5 mg/kg b.w. (highest dose), 4th day): very remarkable on the 4th day of treatment and still lasting 5 hours after administration
Change in BP [1, 24]: -19 mmHg
Change in BP [1, 25]: -19 mmHg
Change in BP [1, 26]: -38 mmHg
Change in BP [1, 27]: -47 mmHg
Hypotensive activity vs Hydralazine ([1]; compound 12.5 mg/kg vs Hydralazine 5 mg/kg, 4th day): much more remarkable
Hypotensive activity vs Hydralazine ([1]; compound 12.5 mg/kg vs Hydralazine 5 mg/kg, first day): comparable to that of Hydralazine
Effect on BP (in words) [1, 11]: reduced BP with both the tested doses (12.5 and 1 mg/kg b.w.); this effect was dose dependent
Change in HR [2, 7]: -22 beats/minute
Change in HR [2, 8]: -20 beats/minute
Change in HR [2, 9]: +7 beats/minute
Change in HR [2, 10]: -8 beats/minute
Change in HR [2, 24]: -10 beats/minute
Change in HR [2, 25]: -15 beats/minute
Change in HR [2, 26]: +2 beats/minute
Change in HR [2, 27]: +5 beats/minute

C=CCN1C[C@H](C(=O)N(CCCN(C)C)C(=O)NCC)C[C@@H]2c3cccc4[nH]cc(c34)C[C@H]21 [Example 19, 1-ethyl-3-(3'-dimethylaminopropyl)-3-(6'-allylergoline-8'βcarbonyl)-urea]
ED50 (prolactin secretion; p.o., day 5 of pregnancy): 0.03 mg/kg
TD50 at 6 h (Emetic activity in dogs): 0.02 mg/kg

C=CCN1C[C@H](C(=O)N(CC)C(=O)NCCCN(C)C)C[C@@H]2c3cccc4[nH]cc(c34)C[C@H]21 [Example 20, 1-(3'-dimethylaminopropyl)-3-ethyl-3-(6'-allylergoline-8'β-carbonyl)-urea]
ED50 (prolactin secretion; p.o., day 5 of pregnancy): 0.27 mg/kg

CCCN1C[C@H](C(=O)N(CCCN(C)C)C(=O)NCC)C[C@@H]2c3cccc4[nH]cc(c34)C[C@H]21 [Example 21, 1-ethyl-3-(3'-dimethylaminopropyl)-3-(6'-n-propylergoline-8'β-carbonyl)-urea]
ED50 (prolactin secretion; p.o., day 5 of pregnancy): 0.02 mg/kg
TD50 at 6 h (Emetic activity in dogs): 0.02 to 0.04 mg/kg

C=CCN1C[C@H](C(=O)N(C)C(=O)NC)C[C@@H]2c3cccc4[nH]cc(c34)C[C@H]21 [Example 24, 1,3-Dimethyl-3-(6'-allylergoline-8'β-carbonyl)-urea]
ED50 (prolactin secretion; p.o., day 5 of pregnancy): 0.5 mg/kg

NNc1nncc2ccccc12 [Hydralazine, reference compound]
Change in BP [1, 7]: -5 mmHg
Change in BP [1, 8]: -15 mmHg
Change in BP [1, 9]: -5 mmHg
Change in BP [1, 10]: 0 mmHg
Change in BP [1, 28]: -40 mmHg
Change in BP [1, 29]: -20 mmHg
Change in BP [1, 30]: -20 mmHg
Change in BP [1, 31]: -7 mmHg
Change in HR [2, 7]: +30 beats/minute
Change in HR [2, 8]: +35 beats/minute
Change in HR [2, 9]: +25 beats/minute
Change in HR [2, 10]: +15 beats/minute
Change in HR [2, 28]: +40 beats/minute
Change in HR [2, 29]: +45 beats/minute
Change in HR [2, 30]: +18 beats/minute
Change in HR [2, 31]: +15 beats/minute
Effect on HR (in words) ([2]; SHR rats, os): increase of HR
